Laboratory results reported in patent US20130281409A1, “Myelin Sheath Fatty Acids that Resolve Neuroinflammation” (priority 2012, published 2013).
“Also recorded” adds a separate entry of the source.

Experiments:
CD4+ T cells = assay: CD69 expression on lymph node cells from PGPC-treated EAE mice (flow cytometry); format: in vivo, mouse; conditions: lymph node cells of prophylactically treated EAE mice, cultured 4 days with 10 μg/ml PLP139-151
Description: FIG. 9. PGPC treatment of mice with EAE suppresses T-cell activation. (A) Expression of CD69 (an early marker of activation) on CD4+ and CD8+ propidium iodide-negative (i.e. live) lymphocytes isolated from PGPC—or vehicle-treated EAE mice and cultured for 4 days with 10 μg/ml of PLP139-151. The ratio of CD69+CD4+:CD69−CD4+ is 14.2%:39.6% for lymph node cells from vehicle-treated EAE mice, and 7.96%:55.2% for cells from PGPC-treated EAE mice. […] (B) Proliferation and (C) cytokine production of splenocytes isolated from the vehicle- or PGPC-treated EAE mice in panel A. Splenocytes from PGPC-treated mice (gray bars) secreted lower levels of IFN-γ and TNF in response to PLP139-151. *P<0.05, respectively, by Student's t-test comparing PLP139-151-stimulated cells from PGPC-treated mice with PLP139-151-stimulated cells from vehicle-treated mice.
PLP-stimulated cells from PLP139-151-immunized mice administered PGPC prophylactically: SJL/J mice were co-injected with PGPC and PLP139-151 in CFA and sacrificed 48 days later. Lymph node cells and splenocytes were then harvested and re-stimulated in vitro (2.5×10^6 cells/ml) with 10 μg/ml of PLP139-151 or with media alone. […]
Cells were stained according to standard protocols, run on a FACScan flow cytometer (BD Biosciences), and analysed with CellQuest software (BD Immunocytometry Systems) or with FlowJo software version 6.3.2 (Tree Star, Inc.). […]

[1] = test system: lymph node cells and splenocytes; assay: PLP139-151-induced cytokine secretion by cells from PGPC-treated EAE mice; format: in vivo, mouse
Description: PLP-stimulated cells from PLP139-151-immunized mice administered PGPC prophylactically: SJL/J mice were co-injected with PGPC and PLP139-151 in CFA and sacrificed 48 days later. Lymph node cells and splenocytes were then harvested and re-stimulated in vitro (2.5×10^6 cells/ml) with 10 μg/ml of PLP139-151 or with media alone. PLP-stimulated cells from untreated PLP139-151-immunized mice: SJL/J mice were immunized with PLP139-151 in CFA and sacrificed 10 days later. Splenocytes were then harvested and re-stimulated in vitro (at 5×10^5 cells/ml) with 10 μg/ml of PLP139-151 in the presence of 30 μg/ml of POPS, PGPC, azPC ester, or azPC. Cytokine production by cells from the lymph nodes and spleens of PGPC co-immunized mice was measured after 66 hours of stimulation by using the BD OptEIA™ Mouse IFN-γ ELISA kit (BD Biosciences). Cytokine assays for the anti-CD3/anti-CD28 antibody-stimulated T cells and PLP139-151-stimulated splenocytes were performed on culture supernatants after 48 hours of stimulation using the BD OptEIA™ Mouse IL-6, IFN-γ, and TNF alpha ELISA kits (BD Biosciences) and the Mouse IL-17 DuoSet ELISA Development kit (R&D Systems).

B cells = assay: Apoptosis of anti-IgM F(ab')2/anti-CD40-stimulated purified B cells; format: cell-based, mouse; conditions: 30 μg/ml lipid, anti-IgM F(ab')2 and anti-CD40, 48 hours
Description: Anti-IgM F(ab′)2 fragment/anti-CD40-stimulated purified B cells: We harvested spleens from naive C57BL/6 mice and used a B-cell isolation kit (Miltenyi Biotec) to negatively isolate B cells. We then stimulated 5×10^5 cells/ml of B cells with 5 μg/ml of each of soluble anti-IgM F(ab′)2 fragment (Jackson ImmunoResearch) antibody and anti-CD40 antibody (eBioscience) in the presence of 30 μg/ml of POPS, PGPC, azPC ester, or azPC.
Cells were stained according to standard protocols, run on a FACScan flow cytometer (BD Biosciences), and analysed with CellQuest software (BD Immunocytometry Systems) or with FlowJo software version 6.3.2 (Tree Star, Inc.). The antibody conjugates used were FITC anti-CD4 (clone GK1.5, BD Pharmingen), FITC anti-mouse CD8 (clone 53-6.7, BD Pharmingen), FITC anti-mouse CD3 (clone 145-2C11, eBioscience), PE-anti-rat IgG2A isotype control (BD Pharmingen), and PE-anti-mouse CD69 (clone H1.2F3, eBioscience). 7AAD staining was performed by using the Annexin V-PE Apoptosis Detection Kit I (BD Pharmingen).

Row | SMILES | CD4+CD69+ cells (CD4+ T cells) [%] | CD69−CD4+ cells (CD4+ T cells) [%] | IFN-γ secretion upon PLP139-151 stimulation ([1]; cells from PGPC-treated vs vehicle-treated EAE mice) | TNF secretion upon PLP139-151 stimulation ([1]; splenocytes from PGPC-treated vs vehicle-treated EAE mice) | apoptosis of activated B cells (B cells)
1 | CCCCCCCCCCCCCCCC(=O)OC[C@H](COP(=O)([O-])OCC[N+](C)(C)C)OC(=O)CCCC(=O)O [PGPC, 1-Palmitoyl-2-Glutaroyl-sn-Glycero-3-Phosphocholine] | 7.96 | 55.2 | secreted less IFN; also recorded: lower levels | lower levels | 
2 | CCCCCCCC/C=C\CCCCCCCC(=O)O[C@H](COC(=O)CCCCCCCCCCCCCCC)COP(=O)(O)OC[C@H](N)C(=O)O [POPS, 1-Palmitoyl-2-Oleoyl-sn-Glycero-3-[Phospho-L-Serine]] |  |  |  |  | increased apoptosis
